Common to all, as to experiment: NCI-60 cell line screen, 48 h
The subject of test [1] is 786-0.
Test [2] concerns A498.
The subject of test [3] is BT-549.
In test [4] the test system is CCRF-CEM.
Test [5] deals with COLO 205.
For test [6], the system named is EKVX.
Test [7] deals with HCT-15.
Test [8] has as its system HOP-92.
For test [9], the system named is IGROV-1.
The test system of test [10] is LOX IMVI.
In test [11] the test system is NCI-H522.
Test [12] relates to OVCAR-3.
The test system of test [13] is OVCAR-5.
The subject of test [14] is OVCAR-8.
In test [15] the test system is RXF 393.
Test [16] deals with SK-MEL-5.
Test [17] has as its system TK-10.
In test [18] the test system is UACC-257.
Test [19] relates to UACC-62.

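These data come from cells grown in 96-well plates and exposed to compound for 48 hours at five concentrations. Here, GI50 denotes the concentration required for 50% inhibition of growth.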 Calls of active or inactive are those of the source. No stated cut-off is given here; in the data, active = GI50 up to about 1.1 µM and inactive = higher.

Ten compounds from ChEMBL document CHEMBL1201862, “PubChem BioAssay data set” (2004) can be followed below.

As to `S=C1SCN(C2CCCCCCCCCCC2)CN1C1CCCCCCCCCCC1`, the GI50 in [1] is > 100 µM (inactive); in test [2], > 100 µM (inactive); in test [3] it was > 100 µM (inactive); in test [4], 34.4 µM (inactive); in test [5], > 100 µM (inactive); in test [6], > 100 µM (inactive). In addition, the GI50 in test [7] was > 100 µM; in [8] it was > 100 µM (inactive); in [9], > 100 µM (inactive); in [10] it was > 100 µM (inactive); in [11] it was 67.5 µM (inactive); in test [12], 34.7 µM (inactive). The GI50 in [13], in test [14], in test [15], in test [16], in test [17] and in [18] was > 100 µM (inactive) each time. The GI50 in [19] was 97.9 µM (inactive).
As for `CC(=O)N(C(=O)CC(=O)N1N=C(c2ccccc2)C(/N=N/c2ccccc2[N+](=O)[O-])C1=O)c1ccc(Cl)cc1` (stereo not given), the GI50 in test [1], in [2], in test [3], in [4], in test [5] and in [6] was > 10 µM (inactive) throughout. Also, the GI50 in test [7] was > 10 µM; in test [8] it was > 10 µM (inactive); in test [9], > 10 µM (inactive); in test [10] it was > 10 µM (inactive); in test [11] it was > 10 µM (inactive); in test [12], > 10 µM (inactive). Also, the GI50 in [13], in [14], in [15], in test [16], in [17] and in test [18] was > 10 µM (inactive) in each case. Besides, in test [19], the GI50 was > 10 µM (inactive).
With `O=C(NCCCNCCCNC(=O)c1cc(-c2ccccc2)nc2ccccc12)c1cc(-c2ccccc2)nc2ccccc12`, the GI50 in [1] was 1.74 µM (inactive); in test [2], 1.93 µM (inactive); in [3] it was 10.2 µM (inactive); in [4], 1.63 µM (inactive); in test [5] it was 1.9 µM (inactive); in [6], 1.68 µM (inactive). Moreover, the GI50 in [7] was 2.6 µM; in [8], 2.02 µM (inactive); in test [9], 1.88 µM (inactive); in test [10], 1.8 µM (inactive); in [11] it was 2.01 µM (inactive); in test [12], 1.46 µM (inactive). The GI50 in test [13] was 1.87 µM (inactive); in [14], 2.56 µM (inactive); in [15], 1.77 µM (inactive); in [16], 1.78 µM (inactive); in [17], 1.91 µM (inactive); in test [18], 1.97 µM (inactive). Moreover, the GI50 in test [19] is 1.93 µM (inactive).
As for `CCCCn1cc(C(=O)O)c(=O)c2c3sccc3ccc21`, the GI50 in test [1], in [2], in test [3], in [4], in [5] and in test [6] was > 100 µM (inactive) throughout. Further, the GI50 in test [7] is 47 µM; in test [8], > 100 µM (inactive); in [9], > 100 µM (inactive); in [10], > 100 µM (inactive); in [11], > 100 µM (inactive); in test [12], > 100 µM (inactive). Further, the GI50 in test [13], in [14], in test [15], in test [16], in [17] and in [18] was > 100 µM (inactive) each time. Moreover, in [19], the GI50 is > 100 µM (inactive).
Consider `COCOC1/C=C/CCCCC2=C(C)C=C(C1)O2` (stereo not given), for which the GI50 in [1], in [2], in test [3], in test [4], in [5] and in test [6] was > 100 µM (inactive) each time. Moreover, the GI50 in [7] was > 100 µM; in test [8] it was > 100 µM (inactive); in test [9], > 100 µM (inactive); in [10], > 100 µM (inactive); in test [11] it was > 100 µM (inactive); in [12], > 100 µM (inactive). Further, the GI50 in test [13], in test [14], in [15], in test [16], in test [17] and in test [18] was > 100 µM (inactive) each time. The GI50 in test [19] is > 100 µM (inactive).
As for `Cc1ccc(S(=O)(=O)N2CCNCCN(S(=O)(=O)c3ccc(C)cc3)CCN(S(=O)(=O)c3ccc(C)cc3)CC2)cc1`, the GI50 in test [1], in test [2], in test [3], in test [4], in test [5] and in test [6] was > 100 µM (inactive) in each case. The GI50 in test [7] was > 100 µM; in test [8], 70.8 µM (inactive); in test [9] it was > 100 µM (inactive); in [10], > 100 µM (inactive); in test [11], > 100 µM (inactive); in [12] it was > 100 µM (inactive). The GI50 in test [13], in test [14], in test [15], in test [16], in test [17] and in test [18] was > 100 µM (inactive) in each case. Moreover, the GI50 in test [19] was > 100 µM (inactive).
`O=C(C1OC1c1ccc(O)cc1)C12CC3CC(CC(C3)C1)C2` (stereo not given): the GI50 in [1] was 31.6 µM (inactive); in [2], > 69.8 µM (inactive); in test [3], 31.2 µM (inactive); in test [4], 5.92 µM (inactive); in [5], 29.5 µM (inactive); in [6], > 58.1 µM (inactive). Also, the GI50 in [7] is 53.2 µM; in [8], 32.3 µM (inactive); in [9], > 86.1 µM (inactive); in [10], > 40.2 µM (inactive); in test [11] it was 7.29 µM (inactive); in test [12], 45.1 µM (inactive). The GI50 in [13] is > 100 µM (inactive); in test [14] it was 50 µM (inactive); in test [15], > 78.3 µM (inactive); in test [16], 61.7 µM (inactive); in [17], 58.3 µM (inactive); in test [18], 57 µM (inactive). For the same compound, the GI50 in test [19] was 40.1 µM (inactive).
Regarding `O=P1(C(O)/C=C/c2ccccc2)N(Cc2ccccc2)[C@H](c2ccccc2)[C@@H](c2ccccc2)N1Cc1ccccc1` (stereo not given in full), the GI50 in [1] is 23.7 µM (inactive); in test [2], 37.7 µM (inactive); in test [3], 28.6 µM (inactive); in [4], 10.5 µM (inactive); in [5], 11.9 µM (inactive); in [6], 11.7 µM (inactive). Besides, the GI50 in test [7] is 32.1 µM; in [8], 11 µM (inactive); in test [9], 2.24 µM (inactive); in test [10], 17.5 µM (inactive); in [11], 4.9 µM (inactive); in test [12] it was 16.9 µM (inactive). Moreover, the GI50 in test [13] is 21.8 µM (inactive); in test [14] it was 10.2 µM (inactive); in [15], 21.3 µM (inactive); in [16], 14.7 µM (inactive); in test [17] it was 26 µM (inactive); in test [18] it was 8.97 µM (inactive). In addition, the GI50 in test [19] is 11 µM (inactive).
`CCOC(=O)C1(C(=O)OCC)C[C@H]2CON=C2[C@@H]1c1ccc(C(F)(F)F)cc1`: the GI50 was 46.9 µM (inactive) in [1]; 53.1 µM (inactive) in test [2]; 44.7 µM (inactive) in [3]; 7.96 µM (inactive) in [4]; 26.2 µM (inactive) in test [5]; 29.5 µM (inactive) in test [6]. Further, the GI50 in [7] was 38.6 µM; in [8] it was 50.4 µM (inactive); in test [9], 12.5 µM (inactive); in test [10], 16.6 µM (inactive); in test [11], 24.7 µM (inactive); in [12] it was 40.1 µM (inactive). The GI50 in test [13] was 72.6 µM (inactive); in test [14], 79.4 µM (inactive); in test [15] it was 43.6 µM (inactive); in [16], 30.6 µM (inactive); in test [17], 67 µM (inactive); in test [18] it was 30.8 µM (inactive). The GI50 in [19] is 96.2 µM (inactive).
Regarding `COc1cc2c(cc1OC)-c1cc3cc(OC)c(OC)cc3c(C)[n+]1CC2.O=C([O-])CS(=O)(=O)O`, the GI50 in [1] was > 100 µM (inactive); in test [2], > 100 µM (inactive); in test [3], 41.7 µM (inactive); in [4], 6.49 µM (inactive); in test [5], 31.6 µM (inactive); in [6], > 100 µM (inactive). The GI50 in test [7] is > 100 µM; in [8], 95.9 µM (inactive); in test [9] it was 61.1 µM (inactive); in test [10], > 100 µM (inactive); in test [11], 6.78 µM (inactive); in test [12], 29.1 µM (inactive). The GI50 in [13] is > 100 µM (inactive); in test [14], > 100 µM (inactive); in test [15], > 100 µM (inactive); in test [16], 37.8 µM (inactive); in test [17], > 100 µM (inactive); in [18], 15.8 µM (inactive). Moreover, the GI50 in [19] was 23.2 µM (inactive).
